“Also recorded” adds a separate entry of the source.
Tests used:
[1] = test system: C. difficile; assay: Antifungal (fluconazole) treatment before FMT in mice with di-colonisation of C. albicans and C. difficile; type: in vivo, mouse (C57BL/6); conditions: recipient mice colonized with C. albicans; fluconazole 0.5 mg/mL in drinking water 4 days before stool infusion
Experimental: Mice was initially colonized with C. albicans (2×10^8 cfu per mouse) after 3 days of antibiotic cocktail treatment in the drinking water, followed by 4 days of fluconazole treatment supplemented in the drinking water (0.5 mg/mL, Sigma). Then the mice were subjected to C. difficile administration (10^7 spores per mice) through gavage after a consecutive 1.5-day antibiotic cocktail- and 1.5-day free water-drinking. Human stool infusion was performed 2 days later after C. difficile gavage. Both C. difficile load and C. albicans load were enumerated by cultivation on Day 0 before FMT and Day 1 after FMT.
Mouse stool were collected both before and after stool infusion. Fecal C. difficile and C. albicans burdens on day 0 before and day 1 after stool infusion were measured by cultivation. Samples were diluted in PBS and respectively plated on taurocholate cycloserine cefoxitin fructose agar (TCCFA) for quantification of C. difficile burden, on Sabouraud dextrose agar (SDA) for quantification of C. albicans load. Stool samples prior to C. albicans colonization from antibiotic-treated mice were plated on SDA to ensure that mice were C. albicans culture negative.

[2] = test system: C. albicans; assay: Enumeration of C. albicans in feces of mice by cultivation on SDA; type: in vivo, mouse (C57BL/6); conditions: day 4 after administration of C. albicans, fluconazole in drinking water
Experimental: Mice was initially colonized with C. albicans (2×10^8 cfu per mouse) after 3 days of antibiotic cocktail treatment in the drinking water, followed by 4 days of fluconazole treatment supplemented in the drinking water (0.5 mg/mL, Sigma). […] Both C. difficile load and C. albicans load were enumerated by cultivation on Day 0 before FMT and Day 1 after FMT.
C. albicans (10231, purchased from ATCC, USA) was administered to mice (2×10^8 cfu per mouse) via gavage after 3-day antibiotic treatment or supplemented in donor stool slurry at the time of donor stool infusion.

[3] = test system: Clostridium difficile infection (CDI); assay: Randomised controlled trial of FMT versus vancomycin (STD) in patients with CDI: treatment outcome; type: in vivo, human
Experimental: The current study was a sub-study from a randomised controlled trial (RCT) of FMT versus vancomycin (standard therapy, STD) for patients with CDI. Consecutive CDI subjects enrolled into this randomised controlled trial were invited to participate in a substudy of assessment of fecal microbiota. Patients were included if they had three or more loose or watery stools per day for at least two consecutive days or eight or more soft or loose stools in 48 hours and a positive stool test for C. difficile based on a two-step testing algorithm in our hospital, a positive GDH (Glutamate dehydrogenase) screening test followed by a positive polymerase chain reaction (PCR) test of C. difficile. A total of 31 subjects with CDI and 24 healthy household controls were recruited and stool samples at baseline were obtained for analyses of fungal and bacterial microbiomes. Among them, 24 CDI subjects consented to have stool samples collected serially after treatment for microbiome analysis. 16 CDI subjects were treated with FMT and 8 were treated with vancomycin, and they were followed up at baseline and at weeks 2, 4, 10 and 16 after treatment (FIG. 6). Subjects in the FMT group received 5 days of vancomycin followed by donor infused stool via nasojejunal route and those who had STD received oral vancomycin 500 mg orally four times per day for 10 days. A computer-generated randomization schedule was used to assign patients to the treatment sequences. All patients kept a stool diary and were questioned about stool frequency and consistency and medication use.
Treatment response was defined as an absence of diarrhea or persistent diarrhea that could be explained by other causes with a negative stool test for C. difficile toxin, while relapse was defined as diarrhea with a positive stool test for C. difficile toxin. […]
In subjects who received FMT, a nasoduodenal tube was inserted with radiology guidance. […] The tube was removed 30 minutes after the infusion, and patients were monitored for 2 hours. […]

[4] = test system: gut mycobiota; assay: Fungal ITS2 sequencing of fecal DNA (gut mycobiota diversity, richness, composition); type: in vivo, human
Experimental: (§1) Fecal DNA was isolated as described below. 100 mg fecal sample was pre-washed with 1 ml ddH2O and pelleted by centrifugation at 10,000×g for 1 minute. The fecal pellet was re-suspended in 800 μl TE buffer (pH 7.5), supplemented with 1.6 μl 2-Mercaptoethanol and 500 U lyticase (Sigma), and incubated at 37° C. for 60 min. The sample was then centrifuged at 10,000×g for 2 minutes and fecal DNA was subsequently extracted from the pellet using ZR Fecal DNA miniPrep kit (Zymo Research, Orange, CA) according to the protocol. Briefly, fecal pellet was added to the BashingBeadLysis Tube with 750 μl Lysis solution, and then processed at maximum speed for 10 minutes. The lysates were centrifuged at ≥10,000×g for 1 minute. The supernatant was transferred to a Zymo-Spin™ IV Spin Filter in a collection tube and centrifuged at 7,000×g for 1 minute. About 1,200 μl of fecal DNA binding buffer was added to the filtrate in the collection tube, followed by concentration and purification in a new filter tube. Finally, a total of 50 μl eluted DNA with a concentration at 20-100 ng/μl was prepared for each sample.
The final fecal DNA for fungal sequencing was amplified based upon ITS2 (Internal transcribed spacer 2) region using primers as below and PrimeSTAR HS DNA Polymerase kit (TaKaRa, Japan). The primer pairs are ITS2-F: 5′-[…]-3′, ITS2-R: 5′-[…]-3′ (SEQ ID NOs 1 and 2, respectively). ITS2 amplicons were generated with 38 cycles of 3-step PCR: 98° C. 10 s, 59° C. 10 s, and 72° C. 30 s. PCR samples were then sequenced on the Illumina MiSeq PE300 platform (2×300 bp, BGI, China), 151,524±97,694 (number±SD) clean sequences obtained on average (sequence statistics in Table 4).
Raw reads were filtered by SOAPnuke (v 1.5.3) (web site: soap.genomics.org.cn/) developed by BGI as follows: (i) adaptors removed, (ii) read removed if N base is more than 3% of the read, (iii) read removed if bases with quality low than 20 were more than 40% of read, (iv) all duplicates removed. Quality control and data analysis were further implemented in PIPITS (v 1.4.5) 31. Briefly, PIPITS_PREP prepares raw reads from Illumina MiSeq sequencers for ITS extraction; PIPITS_FUNITS extracts ITS2 from the reads; and PIPITS_PROCESS analyses the reads to produce operational taxonomic unit (OTU) abundance tables and the RDP taxonomic assignment table for downstream analysis. The quality trimmed and ITS2 extracted reads were aligned to fungi UNITE database exploiting RDP classifier 2.10 for taxonomic assignment to produce operational taxonomic unit (OTU) abundance table (based on sequence identity >97% identity) and phylotype abundance tables at different taxonomic levels, for downstream analysis.
The fungal OTU and phylptype abundance data were imported into R 3.2.3. Richness, diversity, and evenness calculation were performed using the estimated richness function of the phyloseq package. Spearman correlation and their significance were calculated using the cor and cor.test functions in R, respectively. […] Correlation plots were generated using the corrplot package in R. Heat maps were generated using the pheatmap package in R.
To compare differences in the configurations of fungal and bacterial microbiomes between CDI patients and healthy controls, between FMT responders and non-responders, between FMT treatment and vancomycin (STD) treatment, Lefse analyses were performed on the Huttenhower lab Galaxy server (web site: huttenhower.sph.harvard.edu/galaxy/) by importing the […] and bacterial relative abundance values and associated sample metadata, with FDR adjusted p value <0.05 considered significant and effect size calculated. […]

[5] = test system: gut bacterial microbiota; assay: Bacterial 16S rRNA sequencing of fecal DNA (bacterial microbiota diversity, richness); type: in vivo, human; conditions: responders
Experimental: as §1
The final fecal DNA samples were subject to bacterial 16S rRNA V4 region amplification and sequenced on the Illumina MiSeq PE250 platform (2×250 bp, BGI, China), 132,081±65,429 (number±SD) sequences obtained on average (sequence statistics in Table 5). […]

Compound	efficacy of FMT in clearing C. difficile infection after anti-fungal treatment [1]	C. albicans in feces by cultivation [2]	subjects who developed recurrence of CDI (non-responders) ([3]; 16 subjects on FMT, 8 on vancomycin)	subjects cured of CDI / symptom-free with negative stool C. difficile toxin at last follow-up (responders) ([3]; 16 subjects on FMT, 8 on vancomycin, median follow-up of 16 weeks)	Recurrence at week ([3]; individual CDI subject with recurrence, listed as STD)	alterations in fungal richness and diversity during longitudinal follow-up ([4]; 8 CDI subjects treated with vancomycin)	CDI subjects with an increase in gut fungal richness after treatment ([4]; 11 out of 16 (FMT), 3 out of 8 (vancomycin))	CDI subjects with an increase in gut fungal diversity after treatment ([4]; 13 out of 16 (FMT), 3 out of 8 (vancomycin))	fungal genera enriched in treatment responders after treatment (LefSe) ([4]; all follow-up samples of treatment responders)	genus Candida in fungal composition after treatment ([4]; during follow-up across STD subjects)	relative abundance of fecal C. albicans after treatment ([4]; last follow-up vs baseline, vancomycin: STD responders)	change in bacterial diversity after treatment [5]
OC(Cn1cncn1)(Cn1cncn1)c1ccc(F)cc1F [fluconazole]	restored the efficacy of FMT in clearing C. difficile infection	negative										
CN[C@H](CC(C)C)C(=O)N[C@H]1C(=O)N[C@@H](CC(N)=O)C(=O)N[C@H]2C(=O)N[C@H]3C(=O)N[C@H](C(=O)N[C@H](C(=O)O)c4cc(O)cc(O)c4-c4cc3ccc4O)[C@H](O)c3ccc(c(Cl)c3)Oc3cc2cc(c3O[C@@H]2O[C@H](CO)[C@@H](O)[C@H](O)[C@H]2O[C@H]2C[C@](C)(N)[C@H](O)[C@H](C)O2)Oc2ccc(cc2Cl)[C@H]1O [vancomycin]			three	5 of the 8 and Five of the eight	week 12; also recorded: week 7; also recorded: week 5	inconsistent alterations	37.5%	37.5%	Candida, Talaromyces, Erythrobasidium, Periconia, Stemphylium, Ganoderma	marked expansion	decrease	significant increase

Reference: patent US12427175B2, “Fecal fungome and therapeutic efficacy of fecal microbiota transplantation” (priority 2018, dated 2025)
